Results published in US10060907B2, “Redoxindicators” (priority 2014, dated 2018).
Read-outs that look alike come from different tables or passages of the source.

Columns and labels:
Solubility in water = type: physicochemical
[1] = Reaction of an indicator with NADH, UV/Vis of the reduced form; type: physicochemical; details: for UV-Vis λmax after reduction with NADH: water; for UV/Vis reduced form, λmax after reduction with NADH: 50 mM phosphate buffer pH = 7
Procedure: The following were mixed in a cuvette: 50 μL of 10 mM solution of an indicator (1-methyl-3-[(E)-2-(1,3,3-trimethyl-3H-indolium-2-yl)ethenyl]quinolinium iodide trifluoromethanesulfonate) in distilled water, 950 μL of 50 mM phosphate buffer pH 7, 2 μL of 10 mM NADH solution in distilled water. A UV/Vis spectrum (400-1000 nm) was recorded every 7.5 sec for a 1 min after addition of NADH (resolution 2 nm) (FIG. 1). No further color change could be measured after 52.5 sec.

[2] = Cyclic voltammetry (CV) studies of the redoxindicators; type: physicochemical; details: vs Ag/AgCl, 0.9% NaCl at pH 7, phosphate buffer, Au working electrode, scan rate 100 mVs^−1
Procedure: The CVs of the compounds synthesized in example 6-7 were recorded vs. the Ag/AgCl reference electrode in a phosphate buffer pH 7 (Table 4).
E/mV vs Ag/AgCl, 0.9% NaCl at pH 7, phosphate buffer, Au working electrode, scan rate 100 mVs^−1

[3] = Evaluation of the reaction rates with ascorbate; details: sodium ascorbate
Procedure: (§1) Two solutions of the redoxindicator 1-methyl-6-((E)-3-oxo-3-phenyl-propenyl)-quinolinium methosulfate (5.00 mg, 0.013 mmol) in 1.00 ml water were each treated with an excess of NADH (disodium salt) or sodium ascorbate, respectively. […] After a few minutes, a larger amount of an orange precipitate was obtained, probably the insoluble dihydrochinoline. […] Even after 16 h no precipitate was found.
(§2) Two solutions of the redoxindicators 1-methyl-3-[(E)-2-(1,3,3-trimethyl-3H-indolium-2-yl)ethenyl]quinolinium iodide trifluoromethanesulfonate (0.005 mmol) in 1.00 ml of 50 mM phosphate buffer pH 7 were each treated with 2 μL of 10 mM NADH (disodium salt) or sodium ascorbate solutions in distilled water, respectively. The absorbance at 535 nm was measured in relation to time (FIG. 3).

[4] = Evaluation of the reaction rates with NADH; details: for Colour change of the solution treated with NADH: NADH (disodium salt); for Turnover rates with NADH compared with ascorbate: NADH vs ascorbate
Procedure: as §1, §2

[5] = Evaluation of extinction coefficient under pseudo-first-order reaction conditions; type: physicochemical; details: 535 nm, 50 mM phosphate buffer pH 7, from slope of ΔAbs vs initial NADH
Procedure: The following were mixed in a cuvette: 100 μL of 10 mM solution of 1-methyl-3-[(E)-2-(1,3,3-trimethyl-3H-indolium-2-yl)ethenyl]quinolinium iodide trifluoromethanesulfonate in distilled water, 900 μL of 50 mM phosphate buffer pH 7, 1-3 μL of 10 mM NADH in distilled water. Change in absorbance at 535 nm was recorded after 5 min, when no further color change could be measured (FIG. 3, 9).
This ε value is nine times greater than those of the reduced form of MTT (Czerlinski, G. H.; et al; Journal of Biochemical and Biophysical Methods 1988, 15, 241).

HEK-293 cells = experiment: Cell viability testing, confocal fluorescence microscopy; type: cell-based; details: 20 μM
Procedure: Viable HEK-293 cells and 4% paraformaldehyde killed HEK-293 cells were incubated with 1-methyl-3-[(E)-2-(1,3,3-trimethyl-3H-indolium-2-yl)ethenyl]quinolinium iodide trifluoromethanesulfonate (20 μM) in 10 mM PBS pH 7 at 37 C. Confocal fluorescence microscope images were recorded at 611 nm using excitation at 561 nm. […] The resulting cells retained viability for at least 24 h.

[6] = Fluorometric determination of NADH; details: 20 μM indicator, 4 μM NADH, 10 mM PIPES pH 7, excitation at 535 nm
Procedure: The following were mixed in a cuvette: 2 μL of 10 mM solution of an indicator (1-methyl-3-[(E)-2-(1,3,3-trimethyl-3H-indolium-2-yl)ethenyl]quinolinium iodide trifluoromethanesulfonate) in distilled water, 1000 μL of 10 mM PIPES buffer pH 7, 0.5-4 μL of 1 mM NADH solution in distilled water. The mixture was incubated for 30 min at room temperature. Fluorescence (550-800 nm) was recorded using excitation at 535 nm. (FIG. 10, 11).

[7] = tested on: glucose dehydrogenase 2 (GlucDH2); experiment: Determination of glucose with GlucDH2/NAD and an indicator; type: biochemical; details: 0.5 mM indicator, NAD/GlucDH2, glucose 385 μM, 100 mM phosphate buffer pH 7
Procedure: The following were mixed in a cuvette: 500 μL of 1.0 mM solution of an indicator (1-methyl-6-[(E)-2-(1,3,3-trimethyl-3H-indolium-2-yl)vinyl]quinolinium iodide trifluoromethanesulfonate) in 100 mM phosphate buffer pH 7, 500 μL of glucose dehydrogenase 2 (GlucDH2) solution (in 100 mM phosphate buffer pH 7 containing 4.0 mM NAD^+) at a concentration of 491 U/ml, 40 μL of 10 mM solution of glucose in distilled water. A UV/Vis spectrum (300-1000 nm) was recorded every 1 min for a 10 min after addition of glucose (resolution 1 nm) (FIG. 4).

## C[N+]1=C(/C=C/c2ccc[n+](C)c2)C(C)(C)c2ccccc21
Solubility in water
  solubility: ≥ 114 mM

## C[N+]1=C(/C=C/c2ccc(-c3ccc(/C=C/C4=[N+](C)c5ccccc5C4(C)C)c[n+]3C)[n+](C)c2)C(C)(C)c2ccccc21.O=S(=O)([O-])C(F)(F)F.O=S(=O)([O-])C(F)(F)F.[I-].[I-]
Solubility in water
  solubility: ≥ 15 mM

## CC[n+]1cc(/C=C/C2=[N+](C)c3ccccc3C2(C)C)cc2ccccc21
Solubility in water
  solubility: ≥ 4 mM

## CC[n+]1cc(/C=C2\CCC[N+]3=C2C(C)(C)c2ccccc23)cc2ccccc21
Solubility in water; Cl^− form
  solubility: ≥ 0.3 mM

## C[N+]1=C(/C=C/c2c[n+](C)cc3ccccc23)C(C)(C)c2ccccc21
Solubility in water
  solubility: ≥ 25 mM

## C[N+]1=C(/C=C/c2cccc3c2ncc[n+]3C)C(C)(C)c2ccccc21.O=S(=O)([O-])C(F)(F)F.[I-]
Solubility in water
  solubility: ≥ 9 mM
[1]
  UV-Vis λmax after reduction with NADH: 535 nm

## C[N+]1=C(/C=C/c2cccc3c2nc2ccccc2[n+]3C)C(C)(C)c2ccccc21.O=S(=O)([O-])C(F)(F)F.[I-]
Solubility in water
  solubility: ≥ 4 mM

## C[N+]1=C(/C=C/c2ccc3c(c2)nc2ccccc2[n+]3C)C(C)(C)c2ccccc21.O=S(=O)([O-])C(F)(F)F.[I-]
[1]
  UV-Vis λmax after reduction with NADH: LC-MS m/z 379.3 (M^+) HRMS m/z 378.1970 ([M − H]^+) UV-Vis (water) after reduction with NADH: λmax 740 nm;

## C[N+]1=C(/C=C/c2ccc[n+](C)c2)C(C)(C)c2ccccc21.O=S(=O)([O-])C(F)(F)F.[I-]
[2]
  Reduction potential: −564 mV

## CC[n+]1cc(/C=C/C2=[N+](C)c3ccccc3C2(C)C)cc2ccccc21.O=S(=O)([O-])C(F)(F)F.[I-]
[2]
  Reduction potential: −524 mV

## C[N+]1=C(/C=C/c2c[n+](C)cc3ccccc23)C(C)(C)c2ccccc21.O=S(=O)([O-])C(F)(F)F.[I-]
[2]
  Reduction potential: −424 mV

## CC[n+]1cc(/C=C/C2=[N+](C)c3ccccc3C2(C)C)c2ccccc2c1.O=S(=O)([O-])C(F)(F)F.[I-]
[2]
  Reduction potential: −454 mV

## CCOc1cccc2c1nc1c(/C=C/C3=[N+](C)c4ccccc4C3(C)C)cccc1[n+]2C.[Cl-].[Cl-] [9-ethoxy-10-methyl-1-[(E)-2-(1,3,3-trimethyl-3H-indolium-2-yl)vinyl]phenazinium]
Solubility in water
  solubility: ≥ 7 mM

## COS(=O)(=O)[O-].C[n+]1cccc2cc(/C=C/C(=O)c3ccccc3)ccc21 [MOPPQ, 1-Methyl-6-((E)-3-oxo-3-phenyl-propenyl)-quinolinium methosulfate]
[3]
  Colour change of the solution treated with ascorbate: showed only a pale orange color
[4]
  Colour change of the solution treated with NADH: changed rapidly from nearly colorless to orange
  Turnover rates with NADH compared with ascorbate: much higher than with ascorbate

## C[N+]1=C(/C=C/c2cc3ccccc3[n+](C)c2)C(C)(C)c2ccccc21.O=S(=O)([O-])C(F)(F)F.[I-] [XXIV, 1-methyl-3-[(E)-2-(1,3,3-trimethyl-3H-indolium-2-yl)ethenyl]quinolinium iodide trifluoromethanesulfonate]
[3]
  Colour change of the solution treated with ascorbate: did not change color
[5]
  Extinction coefficient ε of the reduced form: 69.3 mM⁻¹ cm⁻¹
HEK-293 cells
  Fluorescence intensity, viable vs dead HEK-293 cells: much higher in viable cells than in dead cells
HEK-293 cells; 10 mM PBS pH 7, 37 C, 611 nm, excitation 561 nm
  Fluorescence intensity in viable HEK-293 cells: fluorescence intensity was enhanced
HEK-293 cells; confocal image
  Cellular uptake in viable HEK-293 cell: showed cellular uptake
HEK-293 cells; 4% paraformaldehyde killed cells, 10 mM PBS pH 7, 37 C
  Fluorescence intensity in paraformaldehyde killed HEK-293 cells: did not show enhancement in fluorescence intensity
HEK-293 cells; viable HEK-293 cells
  Time for which treated cells retained viability: at least 24 h
[4]
  Colour change of the solution treated with NADH: changed rapidly from nearly colorless to pink
  Turnover rates with NADH compared with ascorbate: much higher than with ascorbate
[6]
  Fluorescence emission λmax after adding NADH: 560 nm
Solubility in water
  solubility: ≥ 10 mM
[1]; 0.5 mM indicator, 20 μM NADH, 50 mM phosphate buffer pH 7
  Time after addition of NADH after which no further color change could be measured: 52.5 s
[1]
  UV/Vis reduced form, λmax after reduction with NADH: 535 nm

## C[N+]1=C(/C=C/c2ccc3c(ccc[n+]3C)c2)C(C)(C)c2ccccc21.O=S(=O)([O-])C(F)(F)F.[I-] [drawing 35, 1-methyl-6-[(E)-2-(1,3,3-trimethyl-3H-indolium-2-yl)vinyl]quinolinium iodide trifluoromethanesulfonate]
[7]
  Absorbance λmax after adding glucose: 516 nm
Solubility in water
  solubility: ≥ 15 mM
[1]
  UV/Vis reduced form, λmax after reduction with NADH: 517 nm

## C[N+]1=C(/C=C/c2cc3ccccc3[n+](C)c2)C(C)(C)c2ccccc21.O=S(=O)([O-])C(F)(F)F.[I-] [drawing 50]
[2]
  Reduction potential: −534 mV

## C[N+]1=C(/C=C/c2ccc3c(ccc[n+]3C)c2)C(C)(C)c2ccccc21.O=S(=O)([O-])C(F)(F)F.[I-] [drawing 52]
[2]
  Reduction potential: −634 mV
